Assay results taken from patent publication US20120173160A1, “METHODS AND SYSTEMS FOR QUANTITATIVELY ASSESSING BIOLOGICAL EVENTS USING ENERGY-PAIRED SCORING” (The Trustees of the University of Pennsylvania, priority 2010, published 2012).
Entries after “also recorded” stand apart in the source; their conditions may differ.

Legend:
Format in all cases: cell-based
Akt-mTOR pathway = experiment: EPS Akt-mTOR pathway score in expression data set of cells treated with 1294 compounds; details: screen of 1294 compounds, strongest negative pathway scores
Experimental: A potential application of EPS is to identify inhibitors of a selected pathway by searching for compounds that induce gene expression changes with a strongly negative pathway score. To test EPS's ability to identify small-molecule inhibitors of a pathway from a large library of compounds, an Akt-mTOR pathway signature was developed using gene expression profiles from the prostates of transgenic mice expressing activated Akt that were treated with either the mTOR inhibitor RAD001 or a vehicle control (Majumder et al.). This signature was used to estimate Akt-mTOR pathway activity in a data set derived from three cell lines that had been treated with 1294 different compounds (Lamb et al.). […] In fact, test samples treated with LY-294002 represented 8 of the top 9 samples identified (FIG. 11A).

TGFβ pathway [1] = experiment: Western blot of Smad2 phosphorylation in NMuMG cells treated with TGF-β1; details: NMuMG cells, 0.15, 0.5, 1.5 or 15 ng/ml, 6 hours
Experimental: To determine whether EPS could quantitatively estimate signal pathway activity in a biological data set, a genome-wide expression data set was generated to reflect graded increases in TGFβ pathway activation by treating the mammary epithelial cell line, NMuMG, with increasing dosages of TGF-β1 for 6 hours. Signature genes were selected using a p-value of 10^−10 associated with the changes in expression without fold-change cutoff.
(§1) To determine whether EPS could quantitatively estimate dose-dependent increases in TGFβ pathway activity using gene expression data, EPS prediction was compared to biochemical analysis of phospho-Smad2 levels in the same samples. Using a previously published TGFβ signature generated from NMuMG cells treated with TGF-β1 for 24 hours, it was determined whether SVD or EPS could detect pathway activation in NMuMG cells treated with increasing doses of TGF-β1. SVD detected pathway activation only in samples treated with the highest dose of TGFβ (15 ng/ml; FIG. 6B).

TGFβ pathway [2] = experiment: EPS estimate of TGFβ pathway activity from gene expression of NMuMG cells treated with TGF-β1
Experimental: as §1
As expected from increasing TGFβ effects on mRNA levels over time, EPS predicted higher pathway activity in training set samples treated with TGF-β1 for 24 hours than in test samples treated with TGF-β1 for 6 hours. […] Therefore, a TGFβ signature was generated using NMuMG cells treated with the lowest dose of TGFβ (0.15 ng/ml) for the shortest period of time (6 hrs) as the training set. This signature was then used to test the ability of SVD and EPS to predict pathway activation at different TGFβ doses.

Molecule | test samples treated with the compound among the top 9 samples identified (Akt-mTOR pathway) | TGFβ pathway activity as levels of phosphorylated Smad2 (TGFβ pathway [1]) | EPS-predicted TGFβ pathway activation, signature from 24 hours treatment (TGFβ pathway [2]; NMuMG cells, 0.5, 1.5 and 15 ng/ml, 6 hours) | EPS-estimated TGFβ pathway activation, signature from 0.15 ng/ml for 6 hrs (TGFβ pathway [2]; NMuMG cells, increasing doses (0.5, 1.5, 15 ng/ml))
O=c1cc(N2CCOCC2)oc2c(-c3ccccc3)cccc12 [LY-294002] | 8 |  |  | 
TGF-β1: TGF-β1 used to treat the mammary epithelial cell line NMuMG |  | dose-dependent increase in TGFβ pathway activity; also recorded: elevated phospho-Smad2 was detected at all doses | significantly increased pathway activation | progressive increase of TGFβ pathway activation
